Experimental data taken from PubChem BioAssay AID2060492 (Molecular Pharmacology Branch, DTP, NCI, 2025).
pIC50: −log10 of the molar value. Each block holds one compound with its values, some of them ahead of it.

System: 695427-040-R-J1-PDC complex spheroids, viability percent T/C
Assay: Anticancer human tumor 695427-040-R-J1-PDC patient-derived colon adenocarcinoma cell line growth inhibition [GQUAD]
Conditions: for pIC50: curve of first compound; for viability, T/C: stronger effect = lower value
Method in brief: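 Viability of tumor cells grown as complex spheroids with endothelial and stromal cells, exposed to drug combinations. Top concentration at or near clinical Cmax (else 10 microM), diluted in half-log increments.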

[1] = second compound 0.0316 µM, first compound 0.0316 µM
[2] = second compound 0.0316 µM, first compound 0.316 µM
[3] = second compound 0.1 µM, first compound 0.0316 µM
[4] = second compound 0.1 µM, first compound 0.316 µM
[5] = second compound 0.316 µM, first compound 0.0316 µM
[6] = second compound 0.316 µM, first compound 0.316 µM
[7] = second compound 1 µM, first compound 0.0316 µM
[8] = second compound 1 µM, first compound 0.316 µM
[9] = second compound 3.16 µM, first compound 0.0316 µM
[10] = second compound 3.16 µM, first compound 0.316 µM
[11] = second compound 10 µM, first compound 0.0316 µM
[12] = second compound 10 µM, first compound 0.316 µM
[13] = second compound 0.0316 µM, first compound 0.000999 µM
[14] = second compound 0.0316 µM, first compound 0.00316 µM
[15] = second compound 0.0316 µM, first compound 0.00999 µM
[16] = second compound 0.0316 µM, first compound 0.0999 µM
[17] = second compound 0.1 µM, first compound 0.000999 µM
[18] = second compound 0.1 µM, first compound 0.00316 µM
[19] = second compound 0.1 µM, first compound 0.00999 µM
[20] = second compound 0.1 µM, first compound 0.0999 µM
[21] = second compound 0.316 µM, first compound 0.000999 µM
[22] = second compound 0.316 µM, first compound 0.00316 µM
[23] = second compound 0.316 µM, first compound 0.00999 µM
[24] = second compound 0.316 µM, first compound 0.0999 µM
[25] = second compound 1 µM, first compound 0.000999 µM
[26] = second compound 1 µM, first compound 0.00316 µM
[27] = second compound 1 µM, first compound 0.00999 µM
[28] = second compound 1 µM, first compound 0.0999 µM
[29] = second compound 3.16 µM, first compound 0.000999 µM
[30] = second compound 3.16 µM, first compound 0.00316 µM
[31] = second compound 3.16 µM, first compound 0.00999 µM
[32] = second compound 3.16 µM, first compound 0.0999 µM
[33] = second compound 10 µM, first compound 0.000999 µM
[34] = second compound 10 µM, first compound 0.00316 µM
[35] = second compound 10 µM, first compound 0.00999 µM
[36] = second compound 10 µM, first compound 0.0999 µM
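Note: spheroids exposed to compounds for seven days before readout.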

pIC50 (second compound 0.0316 µM): < 5.00 | pIC50 (second compound 0.1 µM): < 5.00 | pIC50 (second compound 0.316 µM): < 5.00 | pIC50 (second compound 1 µM): < 5.00 | pIC50 (second compound 3.16 µM): > 7.50 | pIC50 (second compound 10 µM): > 7.50
SMILES: C=CC(=O)N1CCN(c2nc(=O)n(-c3c(C)ccnc3C(C)C)c3nc(-c4c(O)cccc4F)c(F)cc23)C(C)C1 (stereo unspecified) + Cc1cnc(CNC(=O)c2c(=O)c3ccc(N4CCCN(C)CC4)nc3n3c2sc2ccccc23)cn1
viability, T/C [1]: 103% | viability, T/C (second compound 0.0316 µM, first compound 0.1 µM): 77% | viability, T/C [2]: 95.1% | viability, T/C (second compound 0.0316 µM, first compound 1 µM): 68.5% | viability, T/C (second compound 0.0316 µM, first compound 3.16 µM): 75.7% | viability, T/C (second compound 0.0316 µM, first compound 10 µM): 71.6% | viability, T/C [3]: 89.2% | viability, T/C (second compound 0.1 µM, first compound 0.1 µM): 81.7% | viability, T/C [4]: 82.3% | viability, T/C (second compound 0.1 µM, first compound 1 µM): 67.7% | viability, T/C (second compound 0.1 µM, first compound 3.16 µM): 102% | viability, T/C (second compound 0.1 µM, first compound 10 µM): 90.9% | viability, T/C [5]: 85.7% | viability, T/C (second compound 0.316 µM, first compound 0.1 µM): 78.7% | viability, T/C [6]: 70.5% | viability, T/C (second compound 0.316 µM, first compound 1 µM): 73.9% | viability, T/C (second compound 0.316 µM, first compound 3.16 µM): 92.6% | viability, T/C (second compound 0.316 µM, first compound 10 µM): 83.8% | viability, T/C [7]: 67.6% | viability, T/C (second compound 1 µM, first compound 0.1 µM): 59.4% | viability, T/C [8]: 60% | viability, T/C (second compound 1 µM, first compound 1 µM): 65.1% | viability, T/C (second compound 1 µM, first compound 3.16 µM): 77.6% | viability, T/C (second compound 1 µM, first compound 10 µM): 79.7% | viability, T/C [9]: 37.7% | viability, T/C (second compound 3.16 µM, first compound 0.1 µM): 50.9% | viability, T/C [10]: 54.2% | viability, T/C (second compound 3.16 µM, first compound 1 µM): 54.4% | viability, T/C (second compound 3.16 µM, first compound 3.16 µM): 64.1% | viability, T/C (second compound 3.16 µM, first compound 10 µM): 57.5% | viability, T/C [11]: 34.2% | viability, T/C (second compound 10 µM, first compound 0.1 µM): 41.6% | viability, T/C [12]: 44.5% | viability, T/C (second compound 10 µM, first compound 1 µM): 44.7% | viability, T/C (second compound 10 µM, first compound 3.16 µM): 58.6% | viability, T/C (second compound 10 µM, first compound 10 µM): 49.7%

pIC50 (second compound 0.0316 µM): < 6.50 | pIC50 (second compound 0.1 µM): < 6.50 | pIC50 (second compound 0.316 µM): < 6.50 | pIC50 (second compound 1 µM): < 6.50 | pIC50 (second compound 3.16 µM): > 9.00 | pIC50 (second compound 10 µM): > 9.00
SMILES: CC[C@@]1(O)C(=O)OCc2c1cc1n(c2=O)Cc2cc3c(CN(C)C)c(O)ccc3nc2-1 + Cc1cnc(CNC(=O)c2c(=O)c3ccc(N4CCCN(C)CC4)nc3n3c2sc2ccccc23)cn1
viability, T/C [13]: 92.5% | viability, T/C [14]: 82.5% | viability, T/C [15]: 89.7% | viability, T/C [1]: 76% | viability, T/C [16]: 82.8% | viability, T/C [2]: 79.2% | viability, T/C [17]: 95.5% | viability, T/C [18]: 74.4% | viability, T/C [19]: 90.8% | viability, T/C [3]: 67.7% | viability, T/C [20]: 91.6% | viability, T/C [4]: 77.5% | viability, T/C [21]: 73.2% | viability, T/C [22]: 66.6% | viability, T/C [23]: 69% | viability, T/C [5]: 61.1% | viability, T/C [24]: 80.5% | viability, T/C [6]: 65.6% | viability, T/C [25]: 56.4% | viability, T/C [26]: 69.8% | viability, T/C [27]: 58.3% | viability, T/C [7]: 65.7% | viability, T/C [28]: 70.9% | viability, T/C [8]: 63.8% | viability, T/C [29]: 45.8% | viability, T/C [30]: 56.8% | viability, T/C [31]: 54.8% | viability, T/C [9]: 53.5% | viability, T/C [32]: 65.7% | viability, T/C [10]: 48.4% | viability, T/C [33]: 28.6% | viability, T/C [34]: 51.3% | viability, T/C [35]: 54% | viability, T/C [11]: 49.4% | viability, T/C [36]: 48.8% | viability, T/C [12]: 40.2%

pIC50 (second compound 0.0316 µM): 7.09 | pIC50 (second compound 0.1 µM): 7.31 | pIC50 (second compound 0.316 µM): 7.56 | pIC50 (second compound 1 µM): 7.58 | pIC50 (second compound 3.16 µM): 8.52 | pIC50 (second compound 10 µM): > 9.00
SMILES: CCc1c2c(nc3ccc(O)cc13)-c1cc3c(c(=O)n1C2)COC(=O)[C@]3(O)CC + Cc1cnc(CNC(=O)c2c(=O)c3ccc(N4CCCN(C)CC4)nc3n3c2sc2ccccc23)cn1
viability, T/C [13]: 82.6% | viability, T/C [14]: 75.7% | viability, T/C [15]: 81.1% | viability, T/C [1]: 57.9% | viability, T/C [16]: 50.1% | viability, T/C [2]: 34.5% | viability, T/C [17]: 91.4% | viability, T/C [18]: 68.6% | viability, T/C [19]: 73.2% | viability, T/C [3]: 47.5% | viability, T/C [20]: 47.5% | viability, T/C [4]: 33.8% | viability, T/C [21]: 85.3% | viability, T/C [22]: 57% | viability, T/C [23]: 63.6% | viability, T/C [5]: 49.8% | viability, T/C [24]: 43.2% | viability, T/C [6]: 31.1% | viability, T/C [25]: 66.1% | viability, T/C [26]: 63.6% | viability, T/C [27]: 53.1% | viability, T/C [7]: 47.7% | viability, T/C [28]: 40.4% | viability, T/C [8]: 19.1% | viability, T/C [29]: 55.1% | viability, T/C [30]: 47.3% | viability, T/C [31]: 44.8% | viability, T/C [9]: 38.9% | viability, T/C [32]: 31.2% | viability, T/C [10]: 7.33% | viability, T/C [33]: 39.7% | viability, T/C [34]: 33.7% | viability, T/C [35]: 40.2% | viability, T/C [11]: 37.7% | viability, T/C [36]: 9.89% | viability, T/C [12]: 0.52%
